PubChem BioAssay AID248 (DTP/NCI, 2004)
Inconclusive results and toxic doses are left out. Rule as the data show it: active = T/C of 150% or more; inactive = T/C below 125%.

Test system: L1210 leukemia ip in BDF1 mice, survival T/C
Experiment: NCI In Vivo Anticancer Drug Screen. Data for tumor model L1210 Leukemia (intraperitoneal) in B6D2F1 (BDF1) mice
Conditions: endpoint: mean survival time, higher = longer survival
In short: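 Each compound was tested against a transplantable tumor grown in mice. The endpoint was survival, with treated animals benchmarked against vehicle controls as a simple ratio.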

[1] = dose: 25.0 mg/kg/injection, schedule: Q01DX009 (ip), vehicle: Klucel (hydroxypropylcellulose) (HPC)
[2] = dose: 50.0 mg/kg/injection, schedule: Q01DX009 (ip), vehicle: Klucel (hydroxypropylcellulose) (HPC)
[3] = dose: 100.0 mg/kg/injection, schedule: Q01DX001 (ip), vehicle: Klucel (hydroxypropylcellulose) (HPC)
[4] = dose: 100.0 mg/kg/injection, schedule: Q01DX009 (ip), vehicle: Klucel (hydroxypropylcellulose) (HPC)
[5] = dose: 100.0 mg/kg/injection, schedule: Q04DX003 (ip), vehicle: Klucel (hydroxypropylcellulose) (HPC)
[6] = dose: 200.0 mg/kg/injection, schedule: Q04DX003 (ip), vehicle: Klucel (hydroxypropylcellulose) (HPC)
[7] = dose: 400.0 mg/kg/injection, schedule: Q04DX003 (ip), vehicle: Klucel (hydroxypropylcellulose) (HPC)
[8] = dose: 100.0 mg/kg/injection, schedule: Q04DX003 (ip), vehicle: saline with Tween-80
[9] = dose: 200.0 mg/kg/injection, schedule: Q04DX003 (ip), vehicle: saline with Tween-80
[10] = dose: 400.0 mg/kg/injection, schedule: Q04DX003 (ip), vehicle: saline with Tween-80
[11] = dose: 100.0 mg/kg/injection, schedule: Q01DX009 (ip), vehicle: saline with Tween-80
[12] = dose: 200.0 mg/kg/injection, schedule: Q01DX009 (ip), vehicle: saline with Tween-80
[13] = dose: 400.0 mg/kg/injection, schedule: Q01DX009 (ip), vehicle: saline with Tween-80
[14] = dose: 100.0 mg/kg/injection, schedule: Q01DX005 (ip), vehicle: saline
[15] = dose: 200.0 mg/kg/injection, schedule: Q01DX005 (ip), vehicle: saline
[16] = dose: 200.0 mg/kg/injection, schedule: Q01DX001 (ip), vehicle: saline with Tween-80
[17] = dose: 25.0 mg/kg/injection, schedule: Q01DX009 (ip), vehicle: saline with Tween-80
[18] = dose: 50.0 mg/kg/injection, schedule: Q01DX009 (ip), vehicle: saline with Tween-80
[19] = dose: 50.0 mg/kg/injection, schedule: Q01DX009 (ip), vehicle: saline
[20] = dose: 100.0 mg/kg/injection, schedule: Q01DX009 (ip), vehicle: saline

Measured: T/C

Cc1ccc(NC(=O)c2ccc([N+](=O)[O-])cc2)cc1Cl
inactive: [1] 95 % of control | [2] 103 % of control | [3] 95 % of control | [4] 103 % of control | [5] 93 % of control | dose: 200.0 mg/kg/injection, schedule: Q01DX001 (ip), vehicle: Klucel (hydroxypropylcellulose) (HPC) 106 % of control | [6] 95 % of control | dose: 400.0 mg/kg/injection, schedule: Q01DX001 (ip), vehicle: Klucel (hydroxypropylcellulose) (HPC) 98 % of control | [7] 98 % of control

Nc1nc(Cl)c2nnn(C3CC(O)C(CO)C3)c2n1 (centres undefined)
inactive: [1] 118 % of control | [2] 105 % of control | [4] 100 % of control

CC(C)C(C(=O)c1ccccc1)C(c1ccccc1)c1ccccc1 (centres undefined)
inactive: dose: 100.0 mg/kg/injection, schedule: Q01DX009 (ip), vehicle: other 103 % of control | dose: 200.0 mg/kg/injection, schedule: Q01DX009 (ip), vehicle: other 90 % of control | dose: 400.0 mg/kg/injection, schedule: Q01DX009 (ip), vehicle: other 103 % of control

CCCNC(=O)Oc1cccc(NC(=O)OC)c1
inactive: [8] 93 % of control | [9] 97 % of control | [10] 103 % of control

CCCCSCCC
inactive: [11] 98 % of control | [8] 117 % of control | [12] 98 % of control | [9] 96 % of control | [13] 94 % of control | [10] 94 % of control

Cc1cc(S(=O)(=O)c2cc(C)c(O)c(C(N)=O)c2)cc(C(N)=O)c1O
inactive: dose: 100.0 mg/kg/injection, schedule: Q04DX002 (ip), vehicle: carboxymethylcellulose (CMC) 95 % of control | dose: 200.0 mg/kg/injection, schedule: Q04DX002 (ip), vehicle: carboxymethylcellulose (CMC) 103 % of control | dose: 400.0 mg/kg/injection, schedule: Q04DX002 (ip), vehicle: carboxymethylcellulose (CMC) 98 % of control

O=C(c1cc(=O)[nH]c(=O)[nH]1)N(CCO)CCO
inactive: dose: 100.0 mg/kg/injection, schedule: Q01DX Z (ip), vehicle: saline 106 % of control | dose: 200.0 mg/kg/injection, schedule: Q01DX Z (ip), vehicle: saline 93 % of control

Nc1ccc(S(=O)(=O)Nc2ccc(N(CCCl)CCCl)cc2)cc1
inactive: [11] 108 % of control | [8] 105 % of control | [12] 113 % of control | [9] 103 % of control | [13] 111 % of control | [10] 102 % of control

COC(=O)C1ON(C(=O)c2ccccc2)C(C)C(O)C1I (centres undefined)
inactive: [5] 96 % of control | [6] 97 % of control | [7] 92 % of control

NS(=O)(=O)c1c([N+](=O)[O-])ncn1C1OC(COC(=O)c2ccccc2)C(OC(=O)c2ccccc2)C1OC(=O)c1ccccc1 (centres undefined)
inactive: [14] 93 % of control | [15] 95 % of control

CC(=O)OC1CC(n2cc(C)c(=O)[nH]c2=O)OC1COC(c1ccccc1)(c1ccccc1)c1ccccc1 (centres undefined)
inactive: [14] 109 % of control | [15] 98 % of control

O=C(Nc1ccccc1C(F)(F)F)c1cccc(C(=O)Nc2ccccc2C(F)(F)F)c1
inactive: [11] 86 % of control | [8] 87 % of control | [13] 88 % of control

CCCCCCCCC1CCC2C3CCC4CC(C(=O)O)C(C(=O)O)CC4(C)C3CCC12C (centres undefined)
inactive: dose: 100.0 mg/kg/injection, schedule: Q01DX001 (ip), vehicle: saline with Tween-80 86 % of control | [16] 87 % of control

COc1ccc2c3c1OC1C(O)C=CC4C(C2)N(C)CCC341 (centres undefined)
inactive: dose: 100.0 mg/kg/injection, schedule: Q01DX001 (ip), vehicle: saline 98 % of control

CCCCCCP(=O)(CCCCCC)C1CCCCC1
inactive: dose: 25.0 mg/kg/injection, schedule: Q01DX001 (ip), vehicle: Klucel (hydroxypropylcellulose) (HPC) 94 % of control | dose: 50.0 mg/kg/injection, schedule: Q01DX001 (ip), vehicle: Klucel (hydroxypropylcellulose) (HPC) 88 % of control | [3] 102 % of control | [16] 97 % of control

CCSC1=C(SCC)C(=O)C(SCC)=C(SCC)C1=O
inactive: dose: 3.1 mg/kg/injection, schedule: Q01DX009 (ip), vehicle: saline with Tween-80 110 % of control | dose: 6.25 mg/kg/injection, schedule: Q01DX009 (ip), vehicle: saline with Tween-80 105 % of control | dose: 12.5 mg/kg/injection, schedule: Q01DX009 (ip), vehicle: saline with Tween-80 105 % of control | [17] 91 % of control | [18] 103 % of control

CCCCCCCC(=O)c1ccc(O)cc1
inactive: [8] 109 % of control | [9] 100 % of control | [10] 103 % of control

ClC1=C(Cl)C(Cl)(Cl)SC1(Cl)Cl
inactive: dose: 3.12 mg/kg/injection, schedule: Q01DX009 (ip), vehicle: acetone 90 % of control | dose: 6.25 mg/kg/injection, schedule: Q01DX009 (ip), vehicle: acetone 101 % of control | dose: 12.5 mg/kg/injection, schedule: Q01DX001 (ip), vehicle: acetone 99 % of control | dose: 12.5 mg/kg/injection, schedule: Q01DX009 (ip), vehicle: acetone 96 % of control | dose: 12.5 mg/kg/injection, schedule: Q04DX003 (ip), vehicle: acetone 92 % of control | dose: 25.0 mg/kg/injection, schedule: Q01DX001 (ip), vehicle: acetone 100 % of control | dose: 50.0 mg/kg/injection, schedule: Q01DX001 (ip), vehicle: acetone 99 % of control

OCC1CCCC1
inactive: dose: 50.0 mg/kg/injection, schedule: Q01DX001 (ip), vehicle: carboxymethylcellulose (CMC) 92 % of control | dose: 100.0 mg/kg/injection, schedule: Q01DX001 (ip), vehicle: carboxymethylcellulose (CMC) 94 % of control | dose: 200.0 mg/kg/injection, schedule: Q01DX001 (ip), vehicle: carboxymethylcellulose (CMC) 92 % of control | dose: 400.0 mg/kg/injection, schedule: Q01DX001 (ip), vehicle: carboxymethylcellulose (CMC) 94 % of control

CCCCCCCCCCCCCCCCCC(=O)OC(C(O)C=O)C(O)C(O)CO (centres undefined)
inactive: dose: 100.0 mg/kg/injection, schedule: Q04DX002 (ip), vehicle: Klucel (hydroxypropylcellulose) (HPC) 95 % of control | dose: 200.0 mg/kg/injection, schedule: Q04DX002 (ip), vehicle: Klucel (hydroxypropylcellulose) (HPC) 109 % of control | dose: 400.0 mg/kg/injection, schedule: Q04DX002 (ip), vehicle: Klucel (hydroxypropylcellulose) (HPC) 95 % of control

O=S1c2ccccc2Sc2ccccc21
inactive: [8] 103 % of control | [9] 97 % of control | [10] 100 % of control

CC(C)c1ccc(C(O)C2CC2)cc1 (centres undefined)
inactive: [8] 94 % of control

O=C1CCC(=O)N1CCC(=O)N(C(=O)NC1CCCCC1)C1CCCCC1
inactive: [19] 98 % of control | [20] 95 % of control | [8] 100 % of control | dose: 200.0 mg/kg/injection, schedule: Q01DX009 (ip), vehicle: saline 101 % of control | [9] 106 % of control | dose: 400.0 mg/kg/injection, schedule: Q01DX009 (ip), vehicle: saline 98 % of control | [10] 100 % of control

O=C(O)C1CCC(SSC2CCC(C(=O)O)CC2[N+](=O)[O-])C([N+](=O)[O-])C1 (centres undefined)
inactive: dose: 100.0 mg/kg/injection, schedule: Q04DX002 (ip), vehicle: saline with Tween-80 95 % of control | dose: 200.0 mg/kg/injection, schedule: Q04DX002 (ip), vehicle: saline with Tween-80 103 % of control | dose: 400.0 mg/kg/injection, schedule: Q04DX002 (ip), vehicle: saline with Tween-80 103 % of control

O=C(CCN1CCCCC1)c1cccc([N+](=O)[O-])c1
inactive: dose: 12.0 mg/kg/injection, schedule: Q04DX003 (ip), vehicle: saline 93 % of control | dose: 25.0 mg/kg/injection, schedule: Q01DX009 (ip), vehicle: saline 111 % of control | dose: 25.0 mg/kg/injection, schedule: Q04DX003 (ip), vehicle: saline 101 % of control | [19] 103 % of control | dose: 50.0 mg/kg/injection, schedule: Q04DX003 (ip), vehicle: saline 95 % of control | [20] 103 % of control

O=Cc1cccc(CC(O)(C(F)(F)F)C(F)(F)F)n1
inactive: [17] 101 % of control | [18] 101 % of control | dose: 50.0 mg/kg/injection, schedule: Q04DX003 (ip), vehicle: saline with Tween-80 91 % of control | [8] 91 % of control | [9] 104 % of control
